Assays:
[1] = Stability of the radiotracer in NaCl 0.9%, HEPES and EDTA (radio-TLC / RP-HPLC); type: physicochemical
Description: (§1) HPLC analyses on indium-111-labelled IP-001 were performed on an S1125 HPLC pump system, and the column used was an Acclaim 120 C18, 3 × 150 mm, 3 µm 120 Å pore size; flow: 0.6 mL/min; gradient: minutes 0–2 A: 70% B: 30%; minutes 2–12 B: 30% -> 95%; and minutes 12–15 B: 95% -> 30%, where A: H2O (0.1% TFA) and B: MeCN. Detection was carried out with an S3245 UV–Vis and an S3700 gamma detector system.
(§2) TLC plates used for the assessment of the preparative reactions were silica gel 60 […] (0.2 mm, Merck) with the eluents mentioned for the specific product in the following paragraphs. Column chromatography was carried out with silica gel 60 (0.063–0.100 mm, Merck), and elution was performed using the eluent described for the specific preparations. The radioactive incorporation and stability of [^111In]In-IP-001 were assessed on ITLC-SG plates, developed in a 1 M ammonium acetate/MeOH 1:1 v/v solution, by using a flatbed-imaging scanner (Cyclone, Perkin Elmer).
(§3) The stability of [^111In]In-IP-001 solutions (0.5 mL, 10 nmol, 18 MBq) was assessed by means of radio-TLC or RP-HPLC at various temperatures (4, 24, and 37 °C) and in the presence of different media up to 120 h after preparation. The studies were performed by incubating the radiotracer with (i) a 0.9% NaCl solution at a 9:1 ratio, (ii) a 0.1 M HEPES solution at a 9:1 ratio, (iii) a 0.1 M EDTA solution at 9:1 and 1:1 ratios, (iv) human serum (HS) at a 9:1 ratio, and (v) HB at a 1:1 ratio. After TLC analysis, samples incubated with HB were centrifuged at 3000 rpm for 10 min to precipitate blood cells, and 200 μL of a MeCN/H2O/TFA 50/45/5 v/v/v solution was added to 400 μL of the supernatant. After another centrifugation under the same conditions, the supernatant was discarded and the residual radioactivity due to the proteins bound fraction was measured in a dose calibrator. Lipophilicity calculation were performed in octanol–water with the shaking flask method, as already described elsewhere. All experiments were performed in triplicate.

[2] = Stability of the radiotracer in human serum; type: in vitro ADME; conditions: for Stability (%), amount of intact radiotracer: Human serum
Description: as §1, §2, §3

[3] = Stability of the radiotracer in human blood; type: in vitro ADME; conditions: for Stability (%), amount of intact radiotracer: Human blood
Description: as §1, §2, §3

[4] = Lipophilicity, octanol-water shaking flask method; type: physicochemical
Description: as §3

A549 cells = assay: [111In]In-IP-001 cellular uptake; type: cell-based, human
Description: A549 epithelial lung cancer cells were seeded in 6-well plates (20,000/cm^2) and allowed to adhere overnight. The following day, the medium was removed and radiotracer uptake was studied by incubating 2 × 10^5 cells at 37 °C in 2 mL of culture medium added to 30 µL (ca. 2 MBq, 1.35 μg, 1 nmol) of [^111In]In-IP-001. Uptake was monitored at 2, 4, 8, and 24 h. At these time points, the medium was removed and cells were washed twice with 2 mL of ice-cold PBS. Finally, cells were detached with 2 mL of a 0.25% trypsin/EDTA solution at 37 °C and centrifuged to separate the supernatant from the cells pellet. The radioactivity associated with the pellets was measured in a γ-spectrometer and corrected for decay. All experiments were performed in triplicate.

A549 xenograft tumors [5] = assay: Ex vivo biodistribution in A549 tumor-bearing mice; design: species or system BALB/c nude mice
Description: (§4) Homozygous female BALB/c nude J:NU (JAX stock number 007850) mice were purchased from Jackson Laboratories (Bar Harbor, ME, USA). Mice were 4 weeks old at arrival, and they were hosted in an IVC system (Smart Flow AHU, Tecniplast) with autoclaved rodent bedding hosting 3–4 mice per cage. Mice were fed with autoclaved rodent food and water ad libitum. The inoculation of A549 tumor cell line was performed by the subcutaneous injection of 5 × 10^6 cells/mouse in 100 uL of […] medium (RPMI added of 10% FBS, 1% penicillin-streptomycin, 1% glutamine) into the right shoulder. […] Inoculation was carried out at 5 weeks of age after one week in the facility for acclimatization purposes. Mice were monitored every 2–3 days by measuring weight and tumor dimensions with an electronic caliper. For this purpose, two perpendicular dimensions were noted and volumes of the tumors were calculated with the formula 0.5 × L × W^2, where L is the measurement of the longest axis and W is the measurement of the axis perpendicular to L, in millimeters.
Tumors were allowed to grow for about five weeks until they reached 0.5–1.0 cm of size in one dimension (i.e., around 50–250 mm^3 volume), and then mice were divided in two groups. The experimental group (n = 5) was intravenously injected (retro-orbital venous sinus) with 150 μL of a [^111]In-IP-001 solution (2.06 nmol, 7.4MBq), while the blocked group (n = 5) was injected with 150 μL of a [^111]In-IP-001 solution added to a 50-fold molar excess of cold ligand. All injections were performed with the animals under isoflurane anesthesia (1–3%), using 30G ultra-fine insulin syringes. Real-time, live, and fast dynamic screening studies were performed right after injection and on selected time points post-injection, on a dedicated desktop, mouse-sized, planar scintigraphic system (γ-eye^TM by BIOEMTECH, Athens, Greece). The system supports fusion with a digital mouse photograph for anatomical co-registration. The main detector is based on two position-sensitive photomultiplier tubes coupled to a CsI(Na) pixelated scintillator and a medium-energy lead collimator with parallel hexagonal holes that supports a range of SPECT isotopes. The system’s field of view is 5 × 10 cm^2, with a spatial resolution of ~2 mm. […] This allowed for a fast test, right after injection, to check whether the injection was successful, and on later time points to quickly evaluate the bio-kinetics of the tracer. Tomographic SPECT/CT imaging was performed with y-CUBE^TM and x-CUBE^TM (Molecubes, Belgium), respectively, at the same selected time points post-injection. The SPECT system provides a spatial resolution of 0.6 mm for mouse imaging and of 1.5 mm for rat imaging. The CT system performs a spiral scan, it can provide images with 100 um resolution, and images were acquired with 50 kVp. Mouse imaging was performed by keeping the mice anaesthetized under isoflurane and under a constant temperature of 37 °C. SPECT scans were acquired with a 45 min duration, and each SPECT scan was followed by a high-resolution CT scan for co-registration purposes. The SPECT data were reconstructed through a maximum-likelihood expectation-maximization (MLEM) algorithm, with a 500 μm voxel size and […]. CT data were reconstructed through an iterative image space reconstruction algorithm (ISRA) algorithm with a 100 μm voxel size. Tomographic images are presented through maximum intensity projection (MIP) view). The experimental group was imaged at 2, 4, 8, and 24 h post-injection with both imaging systems, while the blocked group was imaged at 4 and 24 h.
(§5) For biodistribution studies, the injections were performed as described above, and 3 mice for both groups were sacrificed at 4 and 24 h post injection using 2% isoflurane. Main organs and tissues were removed, weighed, and counted together with blood samples, muscle, and urine by a γ-counter system (Cobra II from Packard, Canberra, ME, USA). […]

A549 xenograft tumors [6] = assay: Blocking experiment with 50-fold molar excess of unlabeled IP-001, ex vivo biodistribution; type: in vivo, BALB/c nude mice
Description: as §4
Tumors were allowed to grow for about five weeks until they reached 0.5–1.0 cm of size in one dimension (i.e., around 50–250 mm^3 volume), and then mice were divided in two groups. The experimental group (n = 5) was intravenously injected (retro-orbital venous sinus) with 150 μL of a [^111]In-IP-001 solution (2.06 nmol, 7.4MBq), while the blocked group (n = 5) was injected with 150 μL of a [^111]In-IP-001 solution added to a 50-fold molar excess of cold ligand. All injections were performed with the animals under isoflurane anesthesia (1–3%), using 30G ultra-fine insulin syringes. […]
as §5

CCK-2R = tested on: CCK-2R; design: method as in PMID 24325469; conditions: cited from earlier work

## CC(C)(C)C(=O)CN1C(=O)C(NC(=O)Nc2cccc(C(=O)NCCCCCCNC(=O)CCC(=O)NCCCOCCOCCOCCCNC(=O)CN3CCN(CC(=O)[O-])CCN(CC(=O)[O-])CCN(CC(=O)[O-])CC3)c2)CN(C2CCCCC2)c2ccccc21.[111In+3] (stereo not shown) [[^111In]In-IP-001]
[1]; EDTA (0.1 M), 4 h
  Stability (%), amount of intact radiotracer: 98 ± 1%
[1]; EDTA (0.1 M), 8 h
  Stability (%), amount of intact radiotracer: 98 ± 1%
[1]; EDTA (0.1 M), 24 h
  Stability (%), amount of intact radiotracer: 96 ± 2%
[1]; EDTA (0.1 M), 72 h
  Stability (%), amount of intact radiotracer: 96 ± 3%
[1]; HEPES (0.1 M), 4 h
  Stability (%), amount of intact radiotracer: 98 ± 2%
[1]; HEPES (0.1 M), 8 h
  Stability (%), amount of intact radiotracer: 97 ± 3%
[1]; HEPES (0.1 M), 24 h
  Stability (%), amount of intact radiotracer: 97 ± 3%
[1]; HEPES (0.1 M), 72 h
  Stability (%), amount of intact radiotracer: 96 ± 1%
[1]; NaCl 0.9%, 4 h
  Stability (%), amount of intact radiotracer: 98 ± 2%
[1]; NaCl 0.9%, 8 h
  Stability (%), amount of intact radiotracer: 98 ± 2%
[1]; NaCl 0.9%, 24 h
  Stability (%), amount of intact radiotracer: 97 ± 2%
[1]; NaCl 0.9%, 72 h
  Stability (%), amount of intact radiotracer: 97 ± 2%
[2]; 4 h
  Stability (%), amount of intact radiotracer: 98 ± 2%
[2]; 8 h
  Stability (%), amount of intact radiotracer: 96 ± 3%
[2]; 24 h
  Stability (%), amount of intact radiotracer: 95 ± 3%
[2]; 72 h
  Stability (%), amount of intact radiotracer: 94 ± 2%
[2]; 120 h
  Stability (%), amount of intact radiotracer: 93 ± 1%
[2]; human serum, after 48 h
  percentage of intact compound: higher than 95%
[3]; 4 h
  Stability (%), amount of intact radiotracer: 98 ± 2%
[3]; 8 h
  Stability (%), amount of intact radiotracer: 95 ± 1%
[3]; 24 h
  Stability (%), amount of intact radiotracer: 95 ± 2%
[3]; 72 h
  Stability (%), amount of intact radiotracer: 93 ± 1%
[3]; 120 h
  Stability (%), amount of intact radiotracer: 93 ± 2%
[3]; human blood (HB), after 48 h
  percentage of intact compound: higher than 95%
[4]
  partition coefficient (LogP): 0.45
A549 cells; 2 MBq, 4 h of incubation
  maximal accumulation (percent of the added radioactivity per million cells): around 5%
A549 cells; incubation up to 24 h
  incubation time of maximal accumulation: 4 h
A549 xenograft tumors [5]; 4 h post injection (abstract)
  spleen uptake: 3.88 ± 0.36 % ID/cc
A549 xenograft tumors [5]; 4 h post injection, i.v., n = 3
  tumor uptake: 2.36 ± 0.26 % IA/g
A549 xenograft tumors [5]; 4 h post injection, n = 3
  blood uptake: 4.21 ± 0.40 % IA/g
  intestines uptake: 2.39 ± 0.28 % IA/g
  kidneys uptake: 6.99 ± 0.97 % IA/g
  liver uptake: 8.25 ± 2.21 % IA/g
  lungs uptake: 2.82 ± 0.21 % IA/g
  pancreas uptake: 2.03 ± 0.16 % IA/g
  spleen uptake: 3.88± 0.36 % IA/g
A549 xenograft tumors [5]; 24 h post injection
  intestines uptake: 0.55 ± 0.29 % IA/g
  kidneys uptake: 3.11 ± 0.52 % IA/g
  liver uptake: 3.55 ± 1.17 % IA/g
  pancreas uptake: 0.26 ± 0.04 % IA/g
  tumor to blood (T/B) ratio: 10.19
  tumor to kidneys ratio: 0.48
  tumor to liver ratio: 0.47
  tumor to muscle (T/M) ratio: 15.72
  tumor/intestines ratio: 2.76
  tumor/lungs ratio: 2.02
  tumor/pancreas ratio: 5.85
A549 xenograft tumors [5]; 24 h post injection, n = 3
  tumor uptake: 1.52 ± 0.71 % IA/g
A549 xenograft tumors [5]; 24 h post-injection relative to 4 h
  accumulated radiotracer still retained in tumor tissue: 65%
A549 xenograft tumors [5]; intestines, lungs, and pancreas, from 4 h to 24 h
  decrease of the signal over 24 h: more than 73%
A549 xenograft tumors [6]; 4 h post injection
  difference in radioactivity in organs and tumors between normal and blocked groups: no significant differences
A549 xenograft tumors [6]; 24 h post injection, with 50-fold molar excess of unlabeled IP-001, n = 3
  tumor uptake, blocked group: 0.84 ± 0.33 % IA/g
A549 xenograft tumors [6]; blocked versus experimental group, 24 h
  lower uptake in the tumor tissue in the blocking setting: 45%

## CC(C)(C)C(=O)CN1C(=O)[C@H](NC(=O)Nc2cccc(C(=O)O)c2)CN(C2CCCCC2)c2ccccc21 [Z-360, Nastorazepide]
CCK-2R; CCK-2R versus CCK-1R
  selectivity relative to CCK-1R: 672
CCK-2R; CCK-2R
  Kd: 0.47 nM

Source: PMC7916174, “Preliminary Study of a 1,5-Benzodiazepine-Derivative Labelled with Indium-111 for CCK-2 Receptor Targeting” (Molecules, 2021)
